These results are taken from patent publication US7718681B2, “5-(1,3-Diaryl-1H-pyrazol-4-ylmethylene)-thiazolidine,2,4-dione derivatives useful as anticancer agent” (Korea Research Institute of Chemical Technology, priority 2005, dated 2010).

The test system of one data set is A549. The data set is described as follows: Cell cytotoxicity assay (SRB), A549. Format: cell-based. The settings on record: Homo sapiens, A549, 10 μM, 48 hours, read-out: % of inhibition of growth of cancer cells. The protocol:
(§1) A549, HT29 and MCF-7 were used to measure anticancer activity. The cancer cells were those distributed from the National Cancer Institute (NCI) of the U.S. and cultured by the Korea Research Institute of Chemical Technology (KRICT), which had been derived from human tumor cell lines. The cells were cultured in a 5% CO2 incubator at 37° C. with constant temperature and humidity using RPMI 1640 culture medium fortified with 5% fetal bovine serum. Subculturing was carried out once in 3-4 days. A PBS (phosphate buffered saline) solution in which 0.25% trypsin and […] trans-1,2-diaminocyclohexane-N,N,N,N-tetraacetic acid (CDTA) were dissolved was used to separate the cells.
(§2) The SRB (sulforhodamine B) assay method, which was developed in 1989 to measure in vitro anticancer activity of drugs by the NCI, was used. The cells were separated using a trypsin-CDTA solution and were plated on a 96-well microplate (Falcon), about 2×10^3 cells per each well. The cells were cultured in a CO2 incubator for 24 hours and were attached to the bottom of the plate. After removing the culture medium using an aspirator, each of Compound No. 78, Compound No. 79 and Doxorubicin, a control drug, diluted in a culture medium was added to the wells containing the cells, with a log dose of 6 equivalents, 3 times, […] at one time. The cells were cultured for 48 more hours. If required, dimethylsulfoxide (DMSO) was used to dissolve the compounds. The diluted compound solutions were filtered through a […] filter before being added to the cells. […] Then, absorbance was measured at 520 nm using a microplate reader. In order to quantify the anticancer effect of the compounds, number of cells was counted for the cases where the drug was added (Tz), the cells were cultured for 48 hours with a culture medium containing no drug (C) and the cells were cultured for 48 hours with a culture medium containing the drug (T). Anticancer activity was calculated by the following equations 1 and 2. […]

For data set [1], the system named is C33A human uterine cancer cell line.
Procedure: In order to verify the in vivo anticancer effect of the compounds of the present invention, C33A human uterine cancer cell line was subcutaneously injected at the abdominal walls of 6- to 8-week-old male nude mice. […] For a positive control, cisplatin (4 mg/kg), which is widely used as an anticancer agent in clinical tests, was used. The dosage given was 0.25 mL per each administration once a day for a period of 7 consecutive days. The volume of the tumor was calculated by the following equation 3, by measuring the long and short axes with a caliper. Tumor volume=(Short axis,mm)^2×(Long axis,mm)×0.523 Equation 3
Another data set deals with HT29. The data set is described as follows: Cell cytotoxicity assay (SRB), HT29. Format: cell-based. The settings on record: Homo sapiens, HT-29, HT29, 10 μM, 48 hours, read-out: % of inhibition of growth of cancer cells. The protocol:
as §1, §2

For another data set, the target named is T1, CDC25B (Homo sapiens, UniProt P30305).
T1 construct: Catalytic domain of CDC25B (aa 378-566) was expressed and produced in E. coli into a GST fusion protein; GST; made in house; host or cells: E. coli
T1 sequence (P30305 378-566 isoform P30305-2): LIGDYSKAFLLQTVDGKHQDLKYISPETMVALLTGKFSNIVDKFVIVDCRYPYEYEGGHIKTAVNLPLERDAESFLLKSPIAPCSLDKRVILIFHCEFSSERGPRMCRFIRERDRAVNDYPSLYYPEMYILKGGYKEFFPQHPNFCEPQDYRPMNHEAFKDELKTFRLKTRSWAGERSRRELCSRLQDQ
The data set is described as follows: CDC25B enzyme assay. The conditions noted are these: catalytic domain of CDC25B (aa 378-566) GST fusion, 20 μm FDP, 1 hour at room temperature, fluorescence. Format: biochemical. On the procedure:
Catalytic domain of CDC25B (aa 378-566) was expressed and produced in E. coli into a GST fusion protein, which was used as zymogen. Enzyme assay was carried out on a 96-well plate, with the final reaction volume per well adjusted to 200 μL. 170 μL of a buffer solution (30 mM Tris buffer, pH 8.5, 75 mM NaCl, 0.67 mM EDTA, 1 mM DTT), 20 μL (0.2 μg) of CDC25B enzyme and 10 μL of the test compound dissolved in DMSO were added, so that the final concentration became 1 μg/mL CDC25B and 20 μm FDP. Measurement was made after culturing at room temperature for 1 hour. FDP and DTT were added to the buffer solution just before assay, so that a fresh status could be maintained. After 1 hour of culturing, fluorescence resultant from the enzymatic reaction was measured at 485 nm (excitation) and 538 nm (emission).
The screened compound was treated to a final concentration of 1, 2, 5 and 10 μm to obtain the % inhibition value. If the inhibitory effect was low (less than 50% at […]), the concentration of the compound was increased to 20 μm and the % inhibition value and the IC50 value were obtained.

A further data set relates to MCF-7. The data set is described as follows: Cell cytotoxicity assay (SRB), MCF-7. The conditions noted are these: Homo sapiens, MCF7, MCF-7, 10 μM, 48 hours, read-out: % of inhibition of growth of cancer cells. In kind it is cell-based. The protocol:
as §1, §2

For orientation: inhibition means how much of the control response was suppressed. For orientation: IC50 means the concentration that gives 50% inhibition. Read a high IC50 as lower potency. Take `CCOc1ccc(-c2nn(-c3ccccc3)cc2C=C2SC(=O)N(C)C2=O)cc1Br` [Compound 78, 5-[3-(3-bromo-4-ethoxy-phenyl)-1-phenyl-1H-pyrazol-4-ylmethylene]-3-methyl-thiazolidine-2,4-dione]: the inhibition at 10 µM in the data set on A549 was determined as 67.5%; with HT29, 59.7%; with MCF-7, 67.3%. Further, the “anticancer activity (tumor volume)” value in data set [1] (C33A tumor in male nude mice, into the abdominal cavity once a day for 7 days, FIG. 1, cisplatin 4 mg/kg positive control) is “comparable to that of cisplatin”. Also, the “negative responses (reduced motion, lack of appetite)” value in data set [1] (mouse, in vivo) is recorded as “did not shows any negative responses”. Moreover, 2260 nM corresponded to half-maximal inhibition on CDC25B (IC50).
On to `CCOc1ccc(-c2nn(-c3ccccc3)cc2C=C2SC(=O)N(CC)C2=O)cc1Br` [Compound 79, 5-[3-(3-bromo-4-ethoxy-phenyl)-1-phenyl-1H-pyrazol-4-ylmethylene]-3-ethyl-thiazolidine-2,4-dione], for which the inhibition at 10 µM was 39.1% in the data set on A549, 82.4% in the data set on HT29 and 31.1% in the data set on MCF-7. For the same molecule, the midpoint of inhibition at CDC25B, the IC50, lay at 1410 nM.
Take `COc1cccc2c1C(=O)c1c(O)c3c(c(O)c1C2=O)C[C@@](O)(C(=O)CO)C[C@@H]3O[C@H]1C[C@H](N)[C@H](O)[C@H](C)O1` [Doxorubicin, reference compound]: the inhibition at 10 µM came out at 39% with A549, 51.1% with HT29 and 63.2% in the data set on MCF-7.
